According to PMC10539800, “Small-molecule inhibitors of the PDZ domain of Dishevelled proteins interrupt Wnt signalling” (Magnetic resonance, 2021):
Values joined by “and” are separate entries in the source; they are usually repeats but may differ in a detail not shown here. Identical values can stand only once. Each block holds one molecule with its values, some of them ahead of it.

Experiments:
Dvl-3 PDZ [1] = molecular target: T1, Dvl-3 PDZ (Homo sapiens, UniProt Q92997); assay: Binding constant by isothermal titration calorimetry (ITC); conditions: for Kd: by ITC, one-site binding model, 25 °C, read-out: K D Dvl-3 PDZ; for n (stoichiometry) Dvl-3 PDZ: ITC one-site fit
T1 construct: spectra of Dvl-3 PDZ in the absence and presence of the compound; His-tag (cleaved yes); made in house
T1 sequence (Q92997 243-336): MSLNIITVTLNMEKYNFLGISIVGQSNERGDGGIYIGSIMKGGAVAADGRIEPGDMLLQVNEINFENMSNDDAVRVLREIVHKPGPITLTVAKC
Experimental: (§2) Isothermal titration calorimetry (ITC) experiments were performed using a VP-ITC system (MicroCal). Protein in 20 mM HEPES buffer and 50 mM NaCl (pH 7.4) was centrifuged and degassed before the experiment. A 200 µM ligand solution containing 2 % DMSO was injected 30 times in 10 µL aliquots at 120 s intervals with a stirring speed of 1000 rpm into a 1.4 mL sample cell containing the Dvl PDZ domain at a concentration of 20 µM at 25 ^∘ C. Control experiment was initially determined by titrating ligand into buffer at the same conditions. […] Thermodynamic properties and binding constants were determined by fitting the data with a non-linear least-squares routine using a single-site binding model with Origin (OriginLab) for ITC v.7.2 (MicroCal).

Dvl-3 PDZ [2] = molecular target: T1, Dvl-3 PDZ; assay: NMR 1H-15N HSQC chemical shift perturbation; format: binding; conditions: for Chemical shift perturbation ΔCSP: Dvl-3 PDZ, average of the three strongest shifting cross peaks
Experimental: The results of virtual screening were checked experimentally by comparing 2D ^1H-^15N HSQC (heteronuclear single quantum correlation) spectra of Dvl-3 PDZ in the absence and presence of the compound to elucidate ligand-induced changes of chemical shifts. Chemical shift perturbation differences ( Δ CSP, representing the average of the three strongest shifting cross peaks according to Eq. 1) were evaluated in cases where the residues responding strongest are inside the area defined by Fig. 1a. […] In most cases, the signals of residues S263, V287, and R320 (Fig. 1a) within the conserved binding site were most strongly perturbed (Fig. S2). With the Δ CSP of 0.12 ppm, the isoleucine-derived compound 1 ((2,3-dihydrobenzo[b][1,4]dioxin-6-yl)sulfonyl)-L-isoleucine containing a sulfonamide moiety was detected initially as one of the best “hits” according to chemical shift changes. The sulfonamide is a well-known moiety in drug discovery (Mathvink et al., 1999; Wu et al., 1999; Sleight et al., 1998; O'Brien et al., 2000; Tellew et al., 2003).
Two-dimensional ^1H-^15N HSQC spectra were used to screen a library of 212 compounds designed by the company Enamine for PDZ domains. 50 µM of ^15N -labelled protein samples was prepared in a 20 mM sodium phosphate buffer, containing 50 mM sodium chloride, 0.02 % ( w/v ) NaN3 , at pH 7.4. Stock solutions of small molecules were prepared in DMSO-d6 at a concentration of 160 mM. A ^1H-^15N HSQC spectrum of Dvl PDZ was acquired at 300 K with 5 % DMSO-d6 in the absence of ligand as reference spectrum. Mixtures of 16 compounds were added to ^15N -labelled Dvl PDZ at eightfold molar excess each. The final concentration of DMSO-d6 in the protein–ligand solutions was 5 %. Spectra were acquired with eight scans and 256 points in the indirect dimension. […] The active compound was obtained through successive deconvolution. Experiments were recorded on a Bruker DRX600 spectrometer equipped with a triple-resonance cryoprobe. The preparation of samples was done automatically by a Tecan Genesis RSP 150 pipetting robot. Spectra were analysed using the programs TOPSPIN and SPARKY (Goddard and Kneller, 2003).
50 µM of ^15N -labelled protein samples was prepared in a 20 mM sodium phosphate buffer containing 50 mM sodium chloride, 0.02 % ( w/v ) NaN3 , at pH 7.4. Stock solutions of small molecules were prepared in DMSO-d6 at a concentration of 160 mM. A ^1H-^15N HSQC spectrum of Dvl PDZ was acquired at 300 K with 5 % DMSO-d6 in the absence of ligand as reference spectrum. Mixtures of 16 compounds were added to ^15N -labelled Dvl PDZ at eightfold molar excess each. The final concentration of DMSO-d6 in the protein–ligand solutions was 5 %. Spectra were acquired with eight scans and 256 points in the indirect dimension.
The active compound was obtained through successive deconvolution. Experiments were recorded on a Bruker DRX600 spectrometer equipped with a triple-resonance cryoprobe. The preparation of samples was done automatically by a Tecan Genesis RSP 150 pipetting robot. Spectra were analysed using the programs TOPSPIN and SPARKY.

Dvl-3 PDZ [3] = molecular target: T1, Dvl-3 PDZ; assay: Binding constant by NMR titration; conditions: by NMR; mean ± SD of at least six residues; read-out: K D Dvl-3 PDZ
Source text: (§1) K D is the equilibrium dissociation constant.

MTT cell viability assay = format: cell-based; conditions: human; HEK293 cells, 24 h after treatment; read-out: EC 50 cell viability
Experimental: These compounds were selected due to different substituents at the R 1 , including halogens. […] In this way, we aimed to develop both potent and less-toxic cell-permeable inhibitors. […] Their binding constants almost have the same value despite the different substituents (bromine or chlorine) at the pyrrole rings. […] Instead, a π – π stacking interaction with F259 was observed (Fig. S3i).
HEK293 cells were plated on a 96-well plate and treated with different concentrations of Dvl inhibitors. After 24 h treatment, 20 µL of MTT solution (5 mg mL ^-1 ) was added into each well. After 2 h incubation, cell culture medium was replaced with 50 µL DMSO, and the signal of the purple formazan, produced by living cells, was measured by a plate reader.

Dvl-3 PDZ [4] = assay: Binding constant by NMR titration; set-up: species or system human; conditions: from NMR K D values
Source text: as §1

Dvl-1 PDZ = molecular target: T2, Dvl-1 PDZ (Homo sapiens, UniProt O14640, C338S/V250I); conditions: ITC
T2 sequence (O14640 245-338 V250I/C338S): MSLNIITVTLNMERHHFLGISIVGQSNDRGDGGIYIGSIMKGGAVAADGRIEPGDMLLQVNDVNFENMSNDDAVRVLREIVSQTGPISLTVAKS
Experimental: as §2

Structure (SMILES): O=C(O)c1cc(Br)ccc1NS(=O)(=O)Cc1ccccc1 [Compound 12, 5-Bromo-2-(phenylmethylsulfonamido)benzoic acid]
Kd (Dvl-3 PDZ [1]): 58.5 µM

Structure (SMILES): CC(C)[C@H](OC(=O)[C@H](C)NC(=O)[C@@H](OC(=O)[C@H](C)NC(=O)OC(C)(C)C)C(C)C)C(=O)O [NSC668036, reference compound]
binding to Dvl-3 PDZ (in words) (Dvl-3 PDZ [1]; ITC): did not show high-affinity binding
Kd (Dvl-3 PDZ [1]): > 400 µM

Structure (SMILES): CC[C@H](C)[C@H](NS(=O)(=O)c1ccc2c(c1)OCCO2)C(=O)O [Compound 1, ((2,3-dihydrobenzo[b][1,4]dioxin-6-yl)sulfonyl)-L-isoleucine]
Chemical shift perturbation ΔCSP (Dvl-3 PDZ [2]): 0.12 ppm

Structure (SMILES): O=C(O)c1cc(Br)ccc1NS(=O)(=O)c1ccc2c(c1)CCCC2 [Compound 7]
Kd (Dvl-3 PDZ [3]): 20.6 ± 2.4 µM
EC50 at 24 h (MTT cell viability assay): 61 to 131 µM

Structure (SMILES): CS(=O)(=O)Nc1ccc(F)cc1C(=O)O [Compound 6]
binding to Dvl-3 PDZ (in words) (Dvl-3 PDZ [1]; ITC): millimolar (mM) range
Kd (Dvl-3 PDZ [1]): > 1000 µM

Structure (SMILES): Cc1cc(C)c(S(=O)(=O)Nc2ccc(Br)cc2C(=O)O)c(C)c1 [Compound 14, 5-Bromo-2-(2,4,6-trimethylphenylsulfoamido)benzoic acid]
Kd (Dvl-3 PDZ [1]): 58.1 ± 2.1 µM

Structure (SMILES): O=C(O)c1cc(Br)ccc1NS(=O)(=O)c1ccc(COc2ccccc2)cc1 [Compound 13, 5-Bromo-2-(4-(phenoxymethyl)phenylsulfonamido)benzoic acid]
Kd (Dvl-3 PDZ [1]): 7.2 µM

Structure (SMILES): O=C(Cc1ccccc1)Nc1cccc(C(=O)Nc2ccccc2C(=O)O)c1 [CBC-322338/3289-8625, reference compound]
binding to Dvl-3 PDZ (in words) (Dvl-3 PDZ [1]; ITC): did not show
Kd (Dvl-3 PDZ [1]): > 400 µM
Chemical shift perturbation ΔCSP (Dvl-3 PDZ [2]): around 0.1 ppm
Kd (Dvl-3 PDZ [2]; estimated from NMR CSP comparison and weak heat in ITC, read-out: binding affinity to Dvl-3): < 50 µM

Structure (SMILES): O=C(O)c1cc(Cl)ccc1NS(=O)(=O)c1ccc2c(c1)CCCC2 [Compound 9]
Kd (Dvl-3 PDZ [3]): 41.1 ± 3.1 µM
EC50 at 24 h (MTT cell viability assay): 61 to 131 µM

Structure (SMILES): O=C(O)c1cc(C(F)(F)F)ccc1NS(=O)(=O)c1ccc2c(c1)CCCC2 [Compound 8, 2-(5,6,7,8-Tetrahydronaphthalene-2-sulfonamido)-5-(trifluoromethyl) benzoic acid]
Kd (Dvl-3 PDZ [1]): 17.4 ± 0.5 µM
EC50 at 24 h (MTT cell viability assay): 61 to 131 µM

Structure (SMILES): O=C(O)c1cccc(S(=O)(=O)Nc2cccc(S(=O)(=O)Nc3ccccc3C(=O)O)c2)c1 [NPL-1011, 3-( {3-[(2-carboxyphenyl)sulfamoyl]phenyl}sulfamoyl)benzoic acid, reference compound]
n (stoichiometry) Dvl-3 PDZ (Dvl-3 PDZ [1]): 0.90 ± 0.08
-tΔS Dvl-3 PDZ (Dvl-3 PDZ [1]; ITC, Fig. S7): -2.8 kcal/mol
Δ G Dvl-3 PDZ (Dvl-3 PDZ [1]; ITC, Fig. S7): -5.5 kcal/mol
Δ H Dvl-3 PDZ (Dvl-3 PDZ [1]; ITC, Fig. S7): -2.7 ± 1.2 kcal/mol
Kd (Dvl-3 PDZ [1]): 79.7 ± 53.3 µM

Structure (SMILES): Cc1cc(C)c(S(=O)(=O)Nc2ccc(C(F)(F)F)cc2C(=O)O)c(C)c1 [Compound 17, 5-(Trifluoromethyl)-2-(2,4,6-trimethylphenylsulfoamido)benzoic acid]
Kd (Dvl-3 PDZ [1]): 49.5 µM

Structure (SMILES): Cc1ccc(NS(=O)(=O)c2ccc3c(c2)CCCC3)c(C(=O)O)c1 [Compound 10]
Kd (Dvl-3 PDZ [3]): 62.5 ± 4.7 µM
EC50 at 24 h (MTT cell viability assay): 61 to 131 µM

Structure (SMILES): O=C(O)c1cc(C(F)(F)F)ccc1NS(=O)(=O)c1ccc2c(c1)OCCO2 [Compound 16, 2-(2,3-Dihydrobenzo[b][1,4]dioxine-6-sulfonamido)-5-(trifluoromethyl)benzoic acid]
Kd (Dvl-3 PDZ [1]): 59.1 ± 1.5 µM

Further lines, with some results ahead:

Kd (Dvl-3 PDZ [3]): 80.6 ± 6.1 µM
discrimination between Dvl-3 PDZ and Dvl-1 PDZ (in words) (Dvl-3 PDZ [4]): did not distinguish
Structure (SMILES): O=C(O)c1cc(F)ccc1NS(=O)(=O)c1ccc2c(c1)CCC2 [Compound 3]
EC50 at 24 h (MTT cell viability assay): 61 to 131 µM

Kd (Dvl-3 PDZ [3]): 83.9 ± 7.8 µM
discrimination between Dvl-3 PDZ and Dvl-1 PDZ (in words) (Dvl-3 PDZ [4]): did not distinguish
Structure (SMILES): Cc1ccc(S(=O)(=O)Nc2ccc(F)cc2C(=O)O)cc1C [Compound 4]

Chemical shift perturbation ΔCSP (Dvl-3 PDZ [2]): > 0.2 ppm
Structure (SMILES): CN1C(=O)Cc2cc(S(=O)(=O)Nc3ccc(F)cc3C(=O)O)ccc21 [Compound 2]

Kd (Dvl-3 PDZ [1]): 13.8 µM
Structure (SMILES): O=C(O)c1cc(Br)ccc1NS(=O)(=O)c1ccc2ccccc2c1 [Compound 11, 5-Bromo-2-(naphthalene-2-sulfonamido) benzoic acid]

T Δ S Dvl-3 PDZ (Dvl-3 PDZ [1]; ITC): 0.4 kcal mol ^-1
Δ H Dvl-3 PDZ (Dvl-3 PDZ [1]; ITC): -5.9 kcal mol ^-1
Kd (Dvl-3 PDZ [1]): 21.8 µM and 21 µM
T Δ S Dvl-1 PDZ (Dvl-1 PDZ): -0.3 kcal mol ^-1
Δ G Dvl-1 PDZ (Dvl-1 PDZ): -7.0 kcal mol ^-1
Δ H Dvl-1 PDZ (Dvl-1 PDZ): -7.3 kcal mol ^-1
Structure (SMILES): Cc1ccc(NS(=O)(=O)c2ccc(CNC(=O)c3c[nH]c4ccccc34)c(Cl)c2)c(C(=O)O)c1 [Compound 19]

n (stoichiometry) Dvl-3 PDZ (Dvl-3 PDZ [1]): 0.97 ±0.14
-tΔS Dvl-3 PDZ (Dvl-3 PDZ [1]; ITC, Fig. S7): 24.9 kcal/mol
Δ H Dvl-3 PDZ (Dvl-3 PDZ [1]; ITC, Fig. S7): -31.9 kcal/mol
Structure (SMILES): CC1=C(CC(=O)O)c2cc(F)ccc2/C1=C\c1ccc([S+](C)[O-])cc1 (centres unmarked) [Sulindac, reference compound]

Kd (Dvl-3 PDZ [1]): 52.9 ± 1.7 µM
Structure (SMILES): CC(=O)c1ccc(S(=O)(=O)Nc2ccc(C(F)(F)F)cc2C(=O)O)cc1 [Compound 15, 2-(4-Acetylphenylsulfoamido)-5-(trifluoromethyl)benzoic acid]
